Results taken from patent US20100261679A1 (priority 2007, published 2010).

Tests used:
[1] = molecular target: T1, cytoplasmic domain of the human CSF-1R (Homo sapiens, UniProt P07333); experiment: In vitro kinase assay for CSF-1R (AlphaScreen); assay type: biochemical; details: tested at about 1 μM
T1 construct: Recombinant protein corresponding to the cytoplasmic domain of the human CSF-1R; purchased Invitrogen Corporation, Carlsbad, Calif; U.S.A. PV3249
T1 sequence (P07333 539-972 limits assumed): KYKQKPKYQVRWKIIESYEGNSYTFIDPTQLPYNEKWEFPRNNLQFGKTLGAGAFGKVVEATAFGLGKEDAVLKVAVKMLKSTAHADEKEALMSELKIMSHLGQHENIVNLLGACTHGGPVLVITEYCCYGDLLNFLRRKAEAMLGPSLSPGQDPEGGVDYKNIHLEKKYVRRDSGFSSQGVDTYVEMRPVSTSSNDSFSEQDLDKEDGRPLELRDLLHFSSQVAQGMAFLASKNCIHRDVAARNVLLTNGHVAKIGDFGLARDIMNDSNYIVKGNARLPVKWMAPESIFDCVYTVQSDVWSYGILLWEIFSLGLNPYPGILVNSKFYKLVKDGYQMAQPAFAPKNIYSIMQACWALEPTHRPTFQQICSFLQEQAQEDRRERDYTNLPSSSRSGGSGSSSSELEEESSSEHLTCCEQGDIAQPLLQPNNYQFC
Experimental: The kinase activity of various protein tyrosine kinases can be measured by providing ATP and a suitable peptide or protein tyrosine-containing substrate, and assaying the transfer of phosphate moiety to the tyrosine residue. Recombinant protein corresponding to the cytoplasmic domain of the human CSF-1R was purchased from Invitrogen Corporation, Carlsbad, Calif. U.S.A. (#PV3249). For each assay, test compounds were serially diluted, starting at 25 μM with 3 fold dilutions, in DMSO in 384 well plates then mixed with an appropriate kinase reaction buffer consisting of 50 mM Hepes, 5 mM MgCl2, 10 mM MnCl2, 0.1% BSA, pH 7.5, 1.0 mM dithiothreitol, 0.01% Tween 80 plus […]. Kinase protein and an appropriate biotinylated peptide substrate at 50 nM were added to give a final volume of 20 μL, reactions were incubated for 2 hours at room temperature and stopped by the addition of 10 μL of 45 mM EDTA, 50 mM Hepes pH 7.5. Added to the stopped reaction mix was 30 μL of PT66 Alphascreen beads (Perkin Elmer, Boston, Mass., U.S.A.). The reaction was incubated overnight and read on the Envision (Perkin Elmer). Phosphorylated peptide product was measured with the AlphaScreen system (Perkin Elmer) using acceptor beads coated with anti-phosphotyrosine antibody PT66 and donor beads coated with streptavidin that emit a fluorescent signal at the 520-620 nm emission wave length if in close proximity. The concentration of each compound for 50% inhibition (IC50) was calculated by non-linear regression using XL Fit data analysis software.
CSF-1R kinase was assayed in 50 mM Hepes pH 7.0, 5 mM MgCl2, 10 mM MnCl2, 1 mM DTT, 1 mg/mL BSA, 1.0 μM ATP, and 0.05 μM biotin-GGGGRPRAATF-NH2 (SEQ ID NO:2) peptide substrate. CSF-1R kinase was added at final concentration of 4 nM.

PDGFRb = molecular target: T2, PDGFRb (Homo sapiens, UniProt P09619); experiment: Inhibition of PDGFRb kinase in an in vitro biochemical assay (alphascreen); details: tested at about 1 μM; read-out: PDGFR % inhibition at 1 μM
T2 construct: The kinase domain of PDGFRβ was assayed in 50 mM Hepes; purchased Invitrogen P3082
Experimental: (§1) The IC50 values for the inhibition of RTKs were determined in the alphascreen format measuring the inhibition by compound of phosphate transfer to a substrate by the respective enzyme. Briefly, the respective RTK domain purchased as human recombinant protein (cKIT Upstate #14-559, PDGFRb Invitrogen #P3082) were incubated with serial dilutions of compound in the presence of substrate and ATP concentrations within 3 times the Km of the enzyme.
(§2) The kinase domain of cKIT was assayed in 50 mM Hepes, pH=7.5, 5 mM MgCl2, 10 mM MnCl2, 1 mM DTT, 0.1% BSA with 0.06 uM biotinylated peptide substrate (GGLFDDPSYVNVQNL-NH2) and 15 μM ATP (ATP KM apparent =15 μM). The kinase domain of PDGFRβ was assayed in 50 mM Hepes, pH=7.5, 20 mM MgCl2, 1 mM DTT, 0.1% BSA with 0.1 μM biotinylated peptide substrate (GGLFDDPSYVNVQNL-NH2) and 10 μM ATP (ATP KM apparent=25 μM). Reactions were incubated at room temperature for 3 to 4 hr and stopped with buffer (20 mM EDTA, 0.01% Tween-20 for both PDGFRβ and cKIT). Alphascreen PY20 beads were added to the stopped cKIT reactions and PY20 Ab/Protein A Alphascreen beads were added to the PDGFRβ stopped reactions. Both reactions were incubated overnight and read on the Alphascreen reader. The concentration of compound for 50% inhibition (IC50) was calculated employing non-linear regression using XL-Fit data analysis software. As a control compound, staurosporine is run in every assay and a Z′>0.5 is required to validate results.

cKIT = molecular target: T3, cKIT (Homo sapiens, UniProt P10721); experiment: Inhibition of cKIT kinase in an in vitro biochemical assay (alphascreen); details: tested at about 1 μM
T3 construct: The kinase domain of cKIT was assayed in 50 mM Hepes; purchased Upstate 14-559
Experimental: as §1, §2

T3 sequence (P10721 589-937 limits assumed): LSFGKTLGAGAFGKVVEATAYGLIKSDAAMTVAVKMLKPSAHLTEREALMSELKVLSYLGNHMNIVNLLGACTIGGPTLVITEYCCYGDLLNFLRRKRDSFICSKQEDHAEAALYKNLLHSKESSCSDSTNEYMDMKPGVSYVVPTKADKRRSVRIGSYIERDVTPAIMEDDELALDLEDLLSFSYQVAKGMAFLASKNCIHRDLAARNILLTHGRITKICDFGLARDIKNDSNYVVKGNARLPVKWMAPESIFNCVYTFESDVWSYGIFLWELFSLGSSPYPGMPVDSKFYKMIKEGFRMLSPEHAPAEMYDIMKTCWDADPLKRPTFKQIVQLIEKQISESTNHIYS
T2 sequence (P09619 600-962 limits assumed): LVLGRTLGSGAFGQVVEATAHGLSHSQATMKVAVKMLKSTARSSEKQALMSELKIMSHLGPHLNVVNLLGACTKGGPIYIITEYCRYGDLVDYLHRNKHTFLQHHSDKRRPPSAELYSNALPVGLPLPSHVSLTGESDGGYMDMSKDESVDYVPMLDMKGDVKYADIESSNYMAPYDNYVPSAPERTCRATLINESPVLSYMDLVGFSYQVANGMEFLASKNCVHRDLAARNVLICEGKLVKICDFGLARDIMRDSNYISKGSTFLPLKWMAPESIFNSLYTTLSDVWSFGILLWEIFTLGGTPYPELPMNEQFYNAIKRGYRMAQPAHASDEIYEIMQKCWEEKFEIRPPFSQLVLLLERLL

SMILES | inhibition at 1 µM [1] [%] | inhibition at 1 µM (PDGFRb) [%] | inhibition at 1 µM (cKIT) [%]
CNC(=O)c1cc(Oc2ccc3nc(OCC4CCCCC4)ncc3c2)ccn1 [Example 55, 4-(2-(cyclohexylmethoxy)quinazolin-6-yloxy)-N-methylpicolinamide] | 99 | 6 | 42
CNC(=O)c1cc(Oc2ccc3nc(N[C@@H](C)c4ccccc4)ncc3c2)ccn1 [Example 64, (S)-N-methyl-4-(2-(1-phenylethylamino)quinazolin-6-yloxy)picolinamide] | 99 | 7 | 16
CNC(=O)c1cc(Oc2ccc3nc(Nc4cccc5c4OCCO5)ncc3c2)ccn1 [Example 40, 4-(2-(2,3-dihydrobenzo[b][1,4]dioxin-5-ylamino)quinazolin-6-yloxy)-N-methylpicolinamide] | 100 | < 1 | 13
CNC(=O)c1cc(Oc2ccc3nc(N[C@H]4CCCC[C@@H]4O)ncc3c2)ccn1 [Example 12] | 100 | 39 | 39
CNC(=O)c1cc(Oc2ccc3nc(NCC4CCCCC4)ncc3c2)ccn1 [Example 39, 4-(2-(cyclohexylmethylamino)quinazolin-6-yloxy)-N-methylpicolinamide] | 99 | 52 | 10
CNC(=O)c1cc(Oc2ccc3nc(NC4CCN(C(=O)OC(C)(C)C)CC4)ncc3c2)ccn1 [Example 57, tert-butyl 4-(6-(2-(methylcarbamoyl)pyridin-4-yloxy)quinazolin-2-ylamino)piperidine-1-carboxylate] | 93 | 2 | 12
CCCNc1ncc2cc(Oc3ccnc(C(=O)NC)c3)ccc2n1 [Example 52, N-methyl-4-(2-(propylamino)quinazolin-6-yloxy)picolinamide] | 52 | 9 | 7
CNC(=O)c1cc(Oc2ccc3nc(Nc4ccccc4OC(C)C)ncc3c2)ccn1 [Example 46, 4-(2-(2-isopropoxyphenylamino)quinazolin-6-yloxy)-N-methylpicolinamide] | 100 | 17 | 27
CCOc1ccccc1Nc1ncc2cc(Oc3ccnc(C(=O)NC)c3)ccc2n1 [Example 45, 4-(2-(2-ethoxyphenylamino)quinazolin-6-yloxy)-N-methylpicolinamide] | 99 | 12 | 38
CNC(=O)c1cc(Nc2ccc3nc(N[C@@H]4CCCC[C@H]4O)sc3c2)ccn1 [Example 79, 4-(2-((1R,2R)-2-hydroxycyclohexylamino)benzo[d]thiazol-6-ylamino)-N-methylpicolinamide] | 97 | < 1 | 13
CNC(=O)c1cc(Oc2ccc3nc(N[C@H](C)C4CCCCC4)ncc3c2)ccn1 [Example 15, (R)-4-(2-(1-cyclohexylethylamino)quinazolin-6-yloxy)-N-methylpicolinamide] | 100 | 26 | 50
CNC(=O)c1cc(Oc2ccc3nc(N[C@@H]4CCCC[C@H]4O)[nH]c3c2)ccn1 [Example 82, 4-(2-((1R,2R)-2-hydroxycyclohexylamino)-1H-benzo[d]imidazol-6-yloxy)-N-methylpicolinamide] | 99 | 30 | 30
CNC(=O)c1cc(Oc2ccc3nc(Nc4ccccc4N4CCN(C)CC4)ncc3c2)ccn1 [Example 54, N-methyl-4-(2-(2-(4-methylpiperazin-1-yl)phenylamino)quinazolin-6-yloxy)picolinamide] | 65 | 20 | 47
